These results are taken from paper PMC3000800 (Bioorganic & medicinal chemistry letters, 2010).

Series [1] deals with native α7 nAChR in rat brain membranes (Rattus norvegicus, UniProt Q05941). Description: biochemical. The class given is binding. The note with it: for inhibition at 10 µM: read-out: Percent binding/inhibition, α7 receptor (selectivity study).
The subject of series [2] is DFP-induced seizure-like behaviors. The note with it: mouse, in vivo.
In the next series the target is human α7 nAChR (Homo sapiens, UniProt P36544). Put plainly: cell-based.
The next series concerns the target muscle-type nAChR (Homo sapiens, UniProt P02708+P07510+Q07001). Type of series: binding.
The target in another series is T1, human 5HT3 receptor (Homo sapiens, UniProt P46098).
T1 sequence (P46098 24-478): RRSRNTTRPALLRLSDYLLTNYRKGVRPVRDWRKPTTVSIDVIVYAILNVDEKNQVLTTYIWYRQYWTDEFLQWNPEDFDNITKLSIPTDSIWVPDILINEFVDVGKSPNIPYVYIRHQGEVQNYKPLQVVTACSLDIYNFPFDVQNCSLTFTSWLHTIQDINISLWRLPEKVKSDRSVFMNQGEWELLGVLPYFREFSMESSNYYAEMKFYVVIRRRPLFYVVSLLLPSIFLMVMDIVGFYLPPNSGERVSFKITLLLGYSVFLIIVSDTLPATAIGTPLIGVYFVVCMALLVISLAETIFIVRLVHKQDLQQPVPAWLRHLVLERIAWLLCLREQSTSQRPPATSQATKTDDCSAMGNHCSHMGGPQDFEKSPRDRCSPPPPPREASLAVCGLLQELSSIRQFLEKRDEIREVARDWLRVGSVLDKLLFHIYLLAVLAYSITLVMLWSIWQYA
Description: biochemical. The following applies: read-out: Percent binding/inhibition, 5HT3 receptor.

A further series deals with neuronal α4β2 nAChRs (Rattus norvegicus, UniProt P09483+P12390). Description: biochemical. The following applies: read-out: Percent binding/inhibition, neuronal α4β2.
The conditions of series [3]: male, C57Bl/6, mouse, in vivo, ip, 10 mg/kg.

Molecules are shown by their SMILES.

Sequence of native α7 nAChR in rat brain membranes (Q05941 23-502): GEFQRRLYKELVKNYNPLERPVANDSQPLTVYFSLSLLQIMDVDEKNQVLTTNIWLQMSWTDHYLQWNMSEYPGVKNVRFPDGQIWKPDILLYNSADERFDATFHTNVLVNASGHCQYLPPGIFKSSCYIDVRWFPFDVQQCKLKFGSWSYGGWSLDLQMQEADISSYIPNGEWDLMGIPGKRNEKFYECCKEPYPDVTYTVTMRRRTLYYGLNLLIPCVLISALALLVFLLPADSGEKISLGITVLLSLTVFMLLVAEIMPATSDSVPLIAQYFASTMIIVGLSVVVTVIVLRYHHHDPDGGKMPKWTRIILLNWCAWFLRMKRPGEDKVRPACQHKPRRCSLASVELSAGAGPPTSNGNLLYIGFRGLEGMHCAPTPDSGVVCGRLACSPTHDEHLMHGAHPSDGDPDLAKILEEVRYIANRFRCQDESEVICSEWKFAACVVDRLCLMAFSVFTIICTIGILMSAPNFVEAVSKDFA
Sequence of muscle-type nAChR (P02708 21-457): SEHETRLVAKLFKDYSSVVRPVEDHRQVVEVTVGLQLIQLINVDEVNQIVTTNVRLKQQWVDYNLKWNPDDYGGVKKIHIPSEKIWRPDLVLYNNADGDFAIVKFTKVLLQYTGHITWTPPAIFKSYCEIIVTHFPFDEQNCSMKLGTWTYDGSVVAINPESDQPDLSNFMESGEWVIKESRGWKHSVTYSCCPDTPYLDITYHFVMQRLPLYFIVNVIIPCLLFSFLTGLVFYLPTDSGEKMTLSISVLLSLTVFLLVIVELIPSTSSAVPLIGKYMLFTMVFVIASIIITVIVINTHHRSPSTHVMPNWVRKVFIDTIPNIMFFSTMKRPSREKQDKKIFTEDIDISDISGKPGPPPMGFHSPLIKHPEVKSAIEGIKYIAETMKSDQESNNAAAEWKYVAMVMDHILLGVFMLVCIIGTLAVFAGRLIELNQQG
Sequence of muscle-type nAChR (P07510 23-517): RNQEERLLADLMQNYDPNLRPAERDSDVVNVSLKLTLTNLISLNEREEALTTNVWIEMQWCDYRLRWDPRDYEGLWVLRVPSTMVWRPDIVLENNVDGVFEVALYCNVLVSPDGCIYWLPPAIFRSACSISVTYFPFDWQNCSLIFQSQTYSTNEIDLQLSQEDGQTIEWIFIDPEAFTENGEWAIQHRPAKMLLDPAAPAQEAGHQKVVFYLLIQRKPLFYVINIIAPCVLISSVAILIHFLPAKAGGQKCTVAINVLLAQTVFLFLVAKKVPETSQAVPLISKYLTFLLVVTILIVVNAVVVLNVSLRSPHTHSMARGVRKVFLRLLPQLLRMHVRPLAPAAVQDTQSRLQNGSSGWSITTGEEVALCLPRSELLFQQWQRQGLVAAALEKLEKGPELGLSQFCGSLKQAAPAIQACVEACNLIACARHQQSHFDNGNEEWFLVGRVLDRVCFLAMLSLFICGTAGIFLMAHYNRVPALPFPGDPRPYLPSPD
Sequence of muscle-type nAChR (P11230 24-501, further chain): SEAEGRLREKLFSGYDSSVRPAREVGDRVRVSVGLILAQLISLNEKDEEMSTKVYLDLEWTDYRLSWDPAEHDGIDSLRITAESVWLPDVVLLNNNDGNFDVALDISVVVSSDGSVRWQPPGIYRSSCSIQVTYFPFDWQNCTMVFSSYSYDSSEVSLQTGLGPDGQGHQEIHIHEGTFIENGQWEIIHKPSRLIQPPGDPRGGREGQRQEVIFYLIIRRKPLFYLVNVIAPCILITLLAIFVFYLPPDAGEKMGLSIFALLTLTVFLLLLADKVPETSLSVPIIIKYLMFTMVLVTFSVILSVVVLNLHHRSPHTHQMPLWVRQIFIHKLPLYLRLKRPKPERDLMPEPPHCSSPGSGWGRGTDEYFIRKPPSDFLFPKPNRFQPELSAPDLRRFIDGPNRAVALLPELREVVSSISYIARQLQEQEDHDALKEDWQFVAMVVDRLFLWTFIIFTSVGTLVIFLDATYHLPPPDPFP
Sequence of muscle-type nAChR (Q07001 22-517): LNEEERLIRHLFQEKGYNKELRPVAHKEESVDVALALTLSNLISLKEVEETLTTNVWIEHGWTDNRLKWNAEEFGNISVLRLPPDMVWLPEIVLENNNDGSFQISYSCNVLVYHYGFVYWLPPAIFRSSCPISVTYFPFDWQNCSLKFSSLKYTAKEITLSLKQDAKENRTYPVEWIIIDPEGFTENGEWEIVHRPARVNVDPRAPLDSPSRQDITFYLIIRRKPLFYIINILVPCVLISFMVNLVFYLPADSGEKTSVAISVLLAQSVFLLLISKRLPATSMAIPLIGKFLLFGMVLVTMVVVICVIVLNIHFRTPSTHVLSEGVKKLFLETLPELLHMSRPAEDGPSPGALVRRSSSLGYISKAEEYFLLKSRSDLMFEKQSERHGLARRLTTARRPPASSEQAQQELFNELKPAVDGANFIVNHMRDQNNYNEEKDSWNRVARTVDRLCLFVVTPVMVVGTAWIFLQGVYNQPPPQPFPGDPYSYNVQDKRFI
Sequence of human α7 nAChR (P36544 23-502): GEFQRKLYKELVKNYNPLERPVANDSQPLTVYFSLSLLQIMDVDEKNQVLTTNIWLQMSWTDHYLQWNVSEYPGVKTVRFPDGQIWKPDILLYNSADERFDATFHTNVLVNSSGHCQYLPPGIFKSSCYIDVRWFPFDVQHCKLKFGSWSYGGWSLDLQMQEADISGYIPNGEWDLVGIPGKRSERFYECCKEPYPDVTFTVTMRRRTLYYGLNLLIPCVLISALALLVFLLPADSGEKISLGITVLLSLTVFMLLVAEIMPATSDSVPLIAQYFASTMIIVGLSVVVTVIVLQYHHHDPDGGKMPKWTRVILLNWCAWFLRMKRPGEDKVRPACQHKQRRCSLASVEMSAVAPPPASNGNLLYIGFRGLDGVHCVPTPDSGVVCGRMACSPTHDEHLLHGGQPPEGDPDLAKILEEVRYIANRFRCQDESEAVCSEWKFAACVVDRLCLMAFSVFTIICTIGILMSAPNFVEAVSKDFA
Sequence of neuronal α4β2 nAChRs (P09483 31-630): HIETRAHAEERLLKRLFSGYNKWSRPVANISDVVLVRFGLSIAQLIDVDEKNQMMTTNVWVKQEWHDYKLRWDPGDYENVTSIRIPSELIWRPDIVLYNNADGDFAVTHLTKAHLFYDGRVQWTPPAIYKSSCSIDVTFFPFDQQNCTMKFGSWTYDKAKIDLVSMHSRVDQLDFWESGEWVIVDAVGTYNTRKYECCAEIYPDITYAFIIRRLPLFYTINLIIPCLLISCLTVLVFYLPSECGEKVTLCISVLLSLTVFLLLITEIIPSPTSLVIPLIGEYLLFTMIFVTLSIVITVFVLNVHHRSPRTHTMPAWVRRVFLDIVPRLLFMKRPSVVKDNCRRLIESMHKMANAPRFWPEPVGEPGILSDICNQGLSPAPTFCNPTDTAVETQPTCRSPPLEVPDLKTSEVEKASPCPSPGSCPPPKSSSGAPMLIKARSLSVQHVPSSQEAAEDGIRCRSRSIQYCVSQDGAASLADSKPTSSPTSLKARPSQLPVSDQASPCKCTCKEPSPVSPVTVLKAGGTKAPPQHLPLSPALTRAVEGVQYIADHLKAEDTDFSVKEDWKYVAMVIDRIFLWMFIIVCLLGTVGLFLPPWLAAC
Sequence of neuronal α4β2 nAChRs (P12390 25-500): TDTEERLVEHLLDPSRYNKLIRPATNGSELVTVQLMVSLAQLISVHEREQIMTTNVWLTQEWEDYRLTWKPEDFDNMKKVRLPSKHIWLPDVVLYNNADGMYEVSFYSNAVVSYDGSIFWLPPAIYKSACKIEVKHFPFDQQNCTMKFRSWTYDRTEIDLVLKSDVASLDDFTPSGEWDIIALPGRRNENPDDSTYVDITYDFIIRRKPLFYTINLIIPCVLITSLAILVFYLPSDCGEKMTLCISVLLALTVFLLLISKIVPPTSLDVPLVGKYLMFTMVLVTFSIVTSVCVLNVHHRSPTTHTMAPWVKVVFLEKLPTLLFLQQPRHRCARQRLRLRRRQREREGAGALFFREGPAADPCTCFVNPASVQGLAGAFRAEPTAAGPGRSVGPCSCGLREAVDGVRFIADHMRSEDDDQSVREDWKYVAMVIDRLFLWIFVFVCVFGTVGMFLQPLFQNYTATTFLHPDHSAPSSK

Take `CCCc1c(C(=O)NC2CCNCC2)cnn1-c1ccccc1` [8i]: in series [1], the “binding affinity to the α7 nAChR (in words)” value was “completely abolished the binding affinity”.

As for `CN(CC1CCN(Cc2ccccc2)CC1)C(=O)c1cn(Cc2ccccc2Cl)nn1` [compound 7i], in series [2], the Normalized % neuroprotection is given as 93.4%, the Normalized % seizure was 6.6% and the “Seizure score (mean ± SD)” value was found to be 0.6 ± 1.3. Moreover, at human α7 nAChR, the IC50 (in general, the point on the concentration scale where inhibition reaches its midpoint) is 3.8 µM.

For `O=C(NCC1CCN(Cc2ccccc2)CC1)c1cn(Cc2cccc(Cl)c2)nn1` [compound 7], on muscle-type nAChR, the “binding to the muscle-type nAChR” value is given as “no detectable binding”. The inhibition at 10 µM at human 5HT3 receptor worked out at 8.4%; in series [1] it was 82.5%; on neuronal α4β2 nAChRs it was 18.8%.

As to `CCCc1c(C(=O)NC2CCN(C)CC2)cnn1-c1ccccc1` [8h], in series [1], the “binding affinity to the α7 nAChR (in words)” value is recorded as “completely abolished the binding affinity”.

In the case of `CCCc1c(C(=O)NC2CCN(Cc3ccccc3)CC2)cnn1-c1ccccc1` [compound 8], the concentration in brain in series [3] stood at 9 µM. Besides, in series [2], the Normalized % neuroprotection stood at 91.2%, the Normalized % seizure is listed as 8.8% and the “Seizure score (mean ± SD)” value stood at 0.8 ± 1.3. The compound further yielded an IC50 against human α7 nAChR of 18.9 µM. Besides, the “binding to the muscle-type nAChR” value on muscle-type nAChR is on record as “no detectable binding”. Further, the inhibition at 10 µM on human 5HT3 receptor is 14.3%. In series [1], half-maximal inhibition (IC50) was put at 2.9 µM and the inhibition at 10 µM was 82.5%. Besides, at neuronal α4β2 nAChRs, the inhibition at 10 µM was 1.3%.
